From patent US5516779A, “17β-substituted-6-azasteroid derivatives useful as 5α-reductase inhibitors” (Merck & Co., Inc., priority 1994, dated 1996)

biological target: T1, 5α-reductase type 1 (Homo sapiens, UniProt P18405); assay: Inhibition of 5α-reductase type 1 (conversion of testosterone to DHT, human scalp homogenate); format: biochemical; conditions: not given
T1 construct: Samples of human tissue were pulverized using a freezer mill and homogenized; from tissue; host or cells: human scalp tissue, crude nuclear pellet
T1 sequence (P18405 1-259): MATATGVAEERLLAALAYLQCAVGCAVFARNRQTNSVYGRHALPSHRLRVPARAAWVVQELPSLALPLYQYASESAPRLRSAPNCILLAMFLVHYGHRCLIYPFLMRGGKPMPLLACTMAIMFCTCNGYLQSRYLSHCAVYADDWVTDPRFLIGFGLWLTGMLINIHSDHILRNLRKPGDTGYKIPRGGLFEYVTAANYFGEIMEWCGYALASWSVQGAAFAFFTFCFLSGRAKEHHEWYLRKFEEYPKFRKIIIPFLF
Procedure: Samples of human tissue were pulverized using a freezer mill and homogenized in 40 mM potassium phosphate, pH 6.5, 5 mM magnesium sulfate, 25 mM potassium chloride, 1 mM phenylmethylsulfonyl fluoride, 1 mM dithiothreitol (DTT) containing 0.25 M sucrose using a Potter-Elvehjem homogenizer. A crude nuclear pellet was prepared by centrifugation of the homogenate at 1,500 x g for 15 min. The crude nuclear pellet was washed two times and resuspended in two volumes of buffer. Glycerol was added to the resuspended pellet to a final concentration of 20%. The enzyme suspension was frozen in aliquots at -80° C. The prostatic and scalp reductases were stable for at least 4 months when stored under these conditions.
The reaction mixture for the type 1 5α-reductase contained 40 mM potassium phosphate, pH 6.5, […] [7-^3 H]-testosterone, 1 mM dithiothreitol and 500 µM NADPH in a final volume of 100 μl. The reaction mixture for the type 2 5α-reductase contained 40 mM sodium citrate, pH 5.5, 0.3 mM [7-^3 H]-testosterone, 1 mM dithiothreitol and 500 µM NADPH in a final volume of 100 μl. Typically, the assay was initiated by the addition of 50-100 μg prostatic homogenate or 75-200 μg scalp homogenate and incubated at 37° C. After 10-50 min. the reaction was quenched by extraction with 250 μl of a mixture of 70% cyclohexane: 30% ethyl acetate containing 10 μl each DHT and T. The aqueous and organic layers were separated by centrifugation at 14,000 rpm in an Eppendorf microfuge. The organic layer was subjected to normal phase HPLC (10 cm Whatman partisil 5 silica column equilibrated in 1 ml/min 70% cyclohexane: 30% ethyl acetate; retention times: DHT, 6.8-7.2 min.; androstanediol, 7.6-8.0 min.; T, 9.1-9.7 min.). The HPLC system consisted of a Waters Model 680 Gradient System equipped with a Hitachi Model 655α autosampler, Applied Biosystems Model 757 -variable UV detector, and a Radiomatic Model A120 radioactivity analyzer. The conversion of T to DHT was monitored using the radioactivity flow detector by mixing the HPLC effluent with one volume of Flo Scint 1 (Radiomatic). Under the conditions described, the production of DHT was linear for at least 25 min. The only steroids observed with the human prostate and scalp preparations were T, DHT and androstanediol.
Compounds were dissolved in 100% ethanol. The compound to be tested was pre-incubated with the enzyme (either 5α-reductase type 1 or 2) prior to initiation by addition of substrate testosterone. IC50 values represent the concentration of inhibitor required to decrease enzyme conversion of testosterone to dihydrotestosterone by 50% of the control. IC50 values were determined using a 6 point titration where the concentration of the inhibitor was varied from 0.1 to 1000 nM. Representative compounds of this invention were tested in the above described assay for 5α-reductase type 1 and type 2 inhibition.

| SMILES | IC50 [nM] |
| --- | --- |
| CN1C[C@H]2[C@@H]3CC[C@H](O)[C@@]3(C)CC[C@@H]2[C@@]2(C)CCC(=O)C=C12 [XIII, 6-methyl-17-hydroxy-6-aza-androst-4-en-3-one] | < 100 |

same assay, conditions: 5α-reductase type 1; pH 6.5; 6 point titration, 0.1 to 1000 nM; "under about"; read-out: IC50 for inhibition of the type 1 isozyme

| SMILES | IC50 [nM] |
| --- | --- |
| CN1C[C@@H]2[C@H](CC[C@]3(C)C(=O)CC[C@@H]23)[C@@]2(C)CCC(=O)C=C12 [VII, 6-methyl-6-aza-androst-4-en-3,17-dione] | < 100 |
| CCC[C@H]1CC[C@H]2[C@@H]3CN(C)C4=CC(=O)CC[C@]4(C)[C@H]3CC[C@]12C [X, 6-methyl-17-propyl-6-aza-androst-4-en-3-one] | < 100 |
| CN1C[C@H]2[C@@H]3CCC[C@@]3(C)CC[C@@H]2[C@@]2(C)CCC(=O)C=C12 [XII, 6-methyl-6-aza-androst-4-en-3-one] | < 100 |
| CN1C[C@H]2[C@@H]3CC[C@H](OC(=O)NC(C)(C)C)[C@@]3(C)CC[C@@H]2[C@@]2(C)CCC(=O)C=C12 [XIV, 6-methyl-17-t-butylcarbamoyloxy-6-aza-androst-4-en-3-one] | < 100 |
| CC(C)CCC[C@@H](C)[C@H]1CC[C@H]2[C@@H]3CNC4=CC(=O)CC[C@]4(C)[C@H]3CC[C@]12C [XV, 6-aza-cholest-4-en-3-one] | < 100 |
| CC(C)CCC[C@@H](C)[C@H]1CC[C@H]2[C@@H]3CN(C)C4=CC(=O)CC[C@]4(C)[C@H]3CC[C@]12C [XVI, 6-methyl-6-aza-cholest-4-en-3-one] | < 100 |
